Measurements as given in paper PMC3720860, “Molecular and Functional Characterization of Odorant-Binding Protein Genes in an Invasive Vector Mosquito, Aedes albopictus” (PLoS ONE, 2013).

Experiments:
Type in all cases: binding
AalbOBP39 [1] = molecular target: T1, AalbOBP39 (Aedes albopictus, UniProt M4W733); test: 1-NPN competitive fluorescence displacement; conditions: 20 mM sodium acetate, pH 7.4, 25 C; 25 ug/ml protein; ligand 6.4-19.2 uM; 30.4 uM 1-NPN
T1 construct: 6xHis-tag fusion, pET-22b(+), E. coli BL21 (DE3); Ni-NTA and gel filtration
T1 sequence (M4W733 19-143): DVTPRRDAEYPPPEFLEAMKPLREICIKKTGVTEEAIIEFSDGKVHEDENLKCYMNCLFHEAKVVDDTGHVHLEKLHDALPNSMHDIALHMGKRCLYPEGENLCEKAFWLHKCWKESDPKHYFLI

AalbOBP37 [2] = molecular target: T2, AalbOBP37 (Aedes albopictus, UniProt M4VP05); test: 1-NPN competitive fluorescence displacement; conditions: 20 mM sodium acetate, pH 7.4, 25 C; 25 ug/ml protein; ligand 6.4-19.2 uM; 32 uM 1-NPN
T2 construct: 6xHis-tag fusion, pET-22b(+), E. coli BL21 (DE3); Ni-NTA and gel filtration
T2 sequence (M4VP05 19-149 limits assumed): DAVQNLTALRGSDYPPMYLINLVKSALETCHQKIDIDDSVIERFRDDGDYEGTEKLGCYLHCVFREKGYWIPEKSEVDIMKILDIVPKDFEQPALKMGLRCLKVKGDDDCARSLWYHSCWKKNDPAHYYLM

AalbOBP37 [3] = molecular target: T2, AalbOBP37; test: direct fluorescence titration; conditions: 20 mM sodium acetate, pH 7.4, 25 C; 25 ug/ml protein; excitation 337 nm; reporter ligand
AalbOBP39 [4] = molecular target: T1, AalbOBP39; test: direct fluorescence titration; conditions: 20 mM sodium acetate, pH 7.4, 25 C; 25 ug/ml protein; excitation 337 nm; reporter ligand

SMILES | normalized 1-NPN fluorescence (AalbOBP39 [1]) | normalized 1-NPN fluorescence (AalbOBP37 [2]) | direct fluorescence titration (AalbOBP37 [3]) | direct fluorescence titration (AalbOBP39 [4])
C=CC(O)CCCCC (stereo not shown) [1-octen-3-ol] | AalbOBP39 showed relatively low affinity to DEET and 1-octen-3-ol | AalbOBP37 showed high affinity to DEET and 1-octen-3-ol |  | 
c1ccc(Nc2cccc3ccccc23)cc1 [N-phenyl-1-naphthylamine] |  |  | only target OBPs could bind 1-NPN, which showed increasing fluorescent intensity | only target OBPs could bind 1-NPN, which showed increasing fluorescent intensity
CCN(CC)C(=O)c1cccc(C)c1 [DEET] | AalbOBP39 showed relatively low affinity to DEET and 1-octen-3-ol | AalbOBP37 showed high affinity to DEET and 1-octen-3-ol |  | 
c1ccc2[nH]ccc2c1 [indole] | AalbOBP37 and AalbOBP39 exhibited relatively strong binding to both indole and skatole | AalbOBP37 and AalbOBP39 exhibited relatively strong binding to both indole and skatole |  | 
Cc1c[nH]c2ccccc12 [skatole] | AalbOBP37 and AalbOBP39 exhibited relatively strong binding to both indole and skatole | AalbOBP37 and AalbOBP39 exhibited relatively strong binding to both indole and skatole |  | 
